Question: Which results are given for `Nc1cc(Cl)ccc1[N+](=O)[O-]`?
Answer: solubility (mole fraction) (in 2-butanone, 283.15 K): 0.141; solubility (mole fraction) (in 2-butanone, 288.15 K): 0.149; solubility (mole fraction) (in 2-butanone, 293.15 K): 0.164; solubility (mole fraction) (in 2-butanone, 298.15 K): 0.173; solubility (mole fraction) (in 2-butanone, 303.15 K): 0.187; solubility (mole fraction) (in 2-butanone, 308.15 K): 0.203; solubility (mole fraction) (in 2-butanone, 313.15 K): 0.218; solubility (mole fraction) (in 2-butanone, 318.15 K): 0.234; solubility (mole fraction) (in 2-butanone, 323.15 K): 0.252; solubility (mole fraction) (in acetone, 283.15 K): 0.126; solubility (mole fraction) (in acetone, 288.15 K): 0.141; solubility (mole fraction) (in acetone, 293.15 K): 0.152; solubility (mole fraction) (in acetone, 298.15 K): 0.165; solubility (mole fraction) (in acetone, 303.15 K): 0.183; solubility (mole fraction) (in acetone, 308.15 K): 0.2; solubility (mole fraction) (in acetone, 313.15 K): 0.219; solubility (mole fraction) (in acetone, 318.15 K): 0.242; solubility (mole fraction) (in acetone, 323.15 K): 0.262; solubility (mole fraction) (in acetonitrile, 283.15 K): 0.0303; solubility (mole fraction) (in acetonitrile, 288.15 K): 0.036; solubility (mole fraction) (in acetonitrile, 293.15 K): 0.0428; solubility (mole fraction) (in acetonitrile, 298.15 K): 0.0519; solubility (mole fraction) (in acetonitrile, 303.15 K): 0.0633; solubility (mole fraction) (in acetonitrile, 308.15 K): 0.0751; solubility (mole fraction) (in acetonitrile, 313.15 K): 0.0945; solubility (mole fraction) (in acetonitrile, 318.15 K): 0.11; solubility (mole fraction) (in acetonitrile, 323.15 K): 0.135; solubility (mole fraction) (in ethanol, 283.15 K): 0.0164; solubility (mole fraction) (in ethanol, 288.15 K): 0.0184; solubility (mole fraction) (in ethanol, 293.15 K): 0.0215; solubility (mole fraction) (in ethanol, 298.15 K): 0.0243; solubility (mole fraction) (in ethanol, 303.15 K): 0.0273; solubility (mole fraction) (in ethanol, 308.15 K): 0.0317; solubility (mole fraction) (in ethanol, 313.15 K): 0.0373; solubility (mole fraction) (in ethanol, 318.15 K): 0.0441; solubility (mole fraction) (in ethanol, 323.15 K): 0.0497; solubility (mole fraction) (in ethyl acetate, 283.15 K): 0.0983; solubility (mole fraction) (in ethyl acetate, 288.15 K): 0.107; solubility (mole fraction) (in ethyl acetate, 293.15 K): 0.117; solubility (mole fraction) (in ethyl acetate, 298.15 K): 0.133; solubility (mole fraction) (in ethyl acetate, 303.15 K): 0.144; solubility (mole fraction) (in ethyl acetate, 308.15 K): 0.158; solubility (mole fraction) (in ethyl acetate, 313.15 K): 0.174; solubility (mole fraction) (in ethyl acetate, 318.15 K): 0.193; solubility (mole fraction) (in ethyl acetate, 323.15 K): 0.24; solubility (mole fraction) (in isobutanol, 283.15 K): 0.0116; solubility (mole fraction) (in isobutanol, 288.15 K): 0.0129; solubility (mole fraction) (in isobutanol, 293.15 K): 0.0154; solubility (mole fraction) (in isobutanol, 298.15 K): 0.0185; solubility (mole fraction) (in isobutanol, 303.15 K): 0.0219; solubility (mole fraction) (in isobutanol, 308.15 K): 0.0259; solubility (mole fraction) (in isobutanol, 313.15 K): 0.0308; solubility (mole fraction) (in isobutanol, 318.15 K): 0.0361; solubility (mole fraction) (in isobutanol, 323.15 K): 0.0444; solubility (mole fraction) (in isopropanol, 283.15 K): 0.0146; solubility (mole fraction) (in isopropanol, 288.15 K): 0.017; solubility (mole fraction) (in isopropanol, 293.15 K): 0.0197; solubility (mole fraction) (in isopropanol, 298.15 K): 0.0232; solubility (mole fraction) (in isopropanol, 303.15 K): 0.0267; solubility (mole fraction) (in isopropanol, 308.15 K): 0.0321; solubility (mole fraction) (in isopropanol, 313.15 K): 0.0372; solubility (mole fraction) (in isopropanol, 318.15 K): 0.0451; solubility (mole fraction) (in isopropanol, 323.15 K): 0.0539; solubility (mole fraction) (in methanol, 283.15 K): 0.0104; solubility (mole fraction) (in methanol, 288.15 K): 0.0122; solubility (mole fraction) (in methanol, 293.15 K): 0.0142; solubility (mole fraction) (in methanol, 298.15 K): 0.0164; solubility (mole fraction) (in methanol, 303.15 K): 0.019; solubility (mole fraction) (in methanol, 308.15 K): 0.0235; solubility (mole fraction) (in methanol, 313.15 K): 0.027; solubility (mole fraction) (in methanol, 318.15 K): 0.0326; solubility (mole fraction) (in methanol, 323.15 K): 0.0374; solubility (mole fraction) (in methyl acetate, 283.15 K): 0.101; solubility (mole fraction) (in methyl acetate, 288.15 K): 0.108; solubility (mole fraction) (in methyl acetate, 293.15 K): 0.12; solubility (mole fraction) (in methyl acetate, 298.15 K): 0.133; solubility (mole fraction) (in methyl acetate, 303.15 K): 0.147; solubility (mole fraction) (in methyl acetate, 308.15 K): 0.162; solubility (mole fraction) (in methyl acetate, 313.15 K): 0.178; solubility (mole fraction) (in methyl acetate, 318.15 K): 0.192; solubility (mole fraction) (in methyl acetate, 323.15 K): 0.214; solubility (mole fraction) (in n-butanol, 283.15 K): 0.0182; solubility (mole fraction) (in n-butanol, 288.15 K): 0.0209; solubility (mole fraction) (in n-butanol, 293.15 K): 0.0246; solubility (mole fraction) (in n-butanol, 298.15 K): 0.0283; solubility (mole fraction) (in n-butanol, 303.15 K): 0.0311; solubility (mole fraction) (in n-butanol, 308.15 K): 0.0358; solubility (mole fraction) (in n-butanol, 313.15 K): 0.0426; solubility (mole fraction) (in n-butanol, 318.15 K): 0.0481; solubility (mole fraction) (in n-butanol, 323.15 K): 0.0553; solubility (mole fraction) (in n-propanol, 283.15 K): 0.0161; solubility (mole fraction) (in n-propanol, 288.15 K): 0.0184; solubility (mole fraction) (in n-propanol, 293.15 K): 0.0214; solubility (mole fraction) (in n-propanol, 298.15 K): 0.0246; solubility (mole fraction) (in n-propanol, 303.15 K): 0.0284; solubility (mole fraction) (in n-propanol, 308.15 K): 0.0315; solubility (mole fraction) (in n-propanol, 313.15 K): 0.0373; solubility (mole fraction) (in n-propanol, 318.15 K): 0.0452; solubility (mole fraction) (in n-propanol, 323.15 K): 0.0517; solubility (mole fraction) (in water, 283.15 K): 5.45e-06; solubility (mole fraction) (in water, 288.15 K): 9.54e-06; solubility (mole fraction) (in water, 293.15 K): 1.22e-05; solubility (mole fraction) (in water, 298.15 K): 1.77e-05; solubility (mole fraction) (in water, 303.15 K): 2.18e-05; solubility (mole fraction) (in water, 308.15 K): 2.73e-05; solubility (mole fraction) (in water, 313.15 K): 3.53e-05; solubility (mole fraction) (in water, 318.15 K): 4.25e-05; solubility (mole fraction) (in water, 323.15 K): 4.78e-05
